This note sets out measurements from US20080319163A1, “Method for Isolating and Purifying Immuno-Modulating Polypeptide from Cow Placenta” (priority 2005, published 2008).

“Also recorded” adds a separate entry of the source.

For one data set, the system named is mice spleen lymphocyte. Nature of the data set: Stimulating lymphocyte proliferation in vitro (MTT method). The class given is cell-based. The following applies: mice spleen lymphocyte suspension, 68 h + 4 h MTT, OD 570 nm; chromatography fractions screened; values only in figures; listed as component 4. How it is done: 1) Stimulating Lymphocyte Proliferation in vitro
Culturing Cells • 1 Preparing Spleen Lymphocyte Suspension:
Remove out the mice spleen under sterile condition, separate lymphocyte by lymphocyte separation medium, regulate the cell concentration to 1×10^6/ml with complete 1640 culture solution. • 2 Experiment Arrangement:
Set control group and experiment group separately to identify the activity of stimulating spleen lymphocyte proliferation by every component. • 3. Experiment Method:
Add 100 μL mice spleen lymphocyte suspension (1×10^6/mL) to 96 well cultured plates. Add 100 μL saline/sample to control group and experiment group separately. Mix to homogenous gently, culture in incubator for 68 h at 37° C. under 5% CO2. Add 20 μl MTT to every well under sterile condition, Mix to homogenous gently, continue to culture for 4 h, add 100 μl dimethyl sulfoxide to every well, keep at room temperature for 10 min, then determine OD of every well by ELISA at 570 nm. • 4. Data Processing
The spleen lymphocyte proliferation rate of experiment group is calculated by the following formula: […]
The value of P is calculated by variance analysis, and significant difference is calculate by T test.

Data set [1] is described as follows: Isoelectric point by CIEF (capillary isoelectric focusing). The class given is physicochemical. The following applies: determined by CIEF. The text has this:
3) Determining isoelectric point of immuno-modulating polypeptide by CIEF.
The foresaid methods 2)-5) are the normal methods known as those skilled in the art.

As for “Tyr-X-Phe-Leu-Gly-Leu-Pro-Gly-X-Thr [immuno-modulating polypeptide]”, the “activity determined by stimulating lymphocyte proliferation in vitro” value with mice spleen lymphocyte is “high-purity inmmuno-modulating polypeptide; also recorded: high-purity immuno-modulating polypeptide”. The isoelectric point in data set [1] was 3.82.
